The values that follow come from patent US9790202B2, “Anthranilamide derivatives as pesticides” (priority 2010, dated 2017).

The structures appear in SMILES notation.

Data set [1] is described as follows: log P determination by HPLC on reversed-phase columns (C 18), acidic range. The format is physicochemical. To be noted: for chromatographic logP: pH 2.7, LOGP (HCOOH). The method, then:
The log P values reported in the table above and in the Preparation Examples were determined in accordance with EEC Directive 79/831 Annex V.A8 by HPLC (High Performance Liquid Chromatography) on reversed-phase columns (C 18), with the following methods:
The LC-MS determination in the acidic range is effected at pH 2.7 using 0.1% aqueous formic acid and acetonitrile (contains 0.1% formic acid) as eluents, linear gradient from 10% acetonitrile to 95% acetonitrile
The calibration was effected with unbranched alkan-2-ones (having 3 to 16 carbon atoms) with known log P values (log P values determined on the basis of the retention times by linear interpolation between two successive alkanones).

Data set [2] relates to green peach aphid (Myzus persicae). The data set is described as follows: Myzus test (MYZUPE spray treatment). The format is in vivo. To be noted: in Brassica rapa, foliar, 144 h, read-out: efficacy in % (aphids killed). The method, then:
Myzus Test (MYZUPE Spray Treatment)
Solvent: 78 parts by weight of acetone 1.5 parts by weight of dimethylformamide
(§1) Emulsifier: 0.5 part by weight of alkylaryl polyglycol ether
(§2) To produce an appropriate active ingredient formulation, 1 part by weight of active ingredient is mixed with the stated amounts of solvent and emulsifier, and the concentrate is diluted with emulsifier-containing water to the desired concentration.
Leaf discs of Chinese cabbage (Brassica pekinensis) infested by all stages of the green peach aphid (Myzus persicae) are sprayed with an active ingredient formulation of the desired concentration.
After 6 days, the efficacy in % is determined 100% means that all aphids have been killed; 0% means that no aphids have been killed.

The test system of data set [3] is larvae of the mustard beetle (Phaedon cochleariae). The data set is described as follows: Phaedon test (PHAECO spray treatment), Use Example 2. The format is in vivo. To be noted: in Brassica rapa, foliar, 168 h, read-out: efficacy in % (beetle larvae killed). The method, then:
(§3) Phaedon Test (PHAECO Spray Treatment)
(§4) Solvent: 78.0 parts by weight of acetone 1.5 parts by weight of dimethylformamide
as §1, §2
Leaf discs of Chinese cabbage (Brassica pekinensis) are sprayed with an active ingredient formulation of the desired concentration and, after drying, populated with larvae of the mustard beetle (Phaedon cochleariae).
After 7 days, the efficacy in % is determined 100% means that all beetle larvae have been killed; 0% means that no beetle larvae have been killed.

Data set [4] shares this test system. The data set is described as follows: Phaedon test (PHAECO spray treatment), Use Example 6, comparison with prior art. The format is in vivo. Conditions: 168 h, 7 d. The method, then: as §3
Solvent: 78.0 parts by weight of acetone
1.5 parts by weight of dimethylformamide
as §1
To produce an appropriate active ingredient formulation, 1 part by weight of active ingredient is mixed with the stated amounts of solvent and emulsifier, and the concentrate is diluted with emulsifier-containing water to the desired concentration. Leaf discs of Chinese cabbage (Brassica pekinensis) are sprayed with an active ingredient formulation of the desired concentration and, after drying, populated with larvae of the mustard beetle (Phaedon cochleariae).
After the desired period of time, the effect in % is determined. 100% means that all beetle larvae have been killed; 0% means that no beetle larvae have been killed.

For data set [5], the system named is caterpillars of the armyworm (Spodoptera frugiperda). The data set is described as follows: Spodoptera frugiperda test (SPODFR spray treatment). It counts as in vivo. Conditions: for pest or weed control at 100 g/ha: Spodoptera frugiperda, in Zea mays, foliar, 168 h, read-out: efficacy in % (caterpillars killed). The procedure: Spodoptera frugiperda Test (SPODFR Spray Treatment)
as §4, §1, §2
Leaf discs of maize (Zea mays) are sprayed with an active ingredient formulation of the desired concentration and, after drying, populated with caterpillars of the armyworm (Spodoptera frugiperda).
After 7 days, the efficacy in % is determined 100% means that all caterpillars have been killed; 0% means that no caterpillars have been killed.

Data set [6] has as its system Lucilia cuprina 1st instar larvae. The data set is described as follows: Lucilia cuprina test (LUCICU). The format is in vivo. Conditions: 100 ppm, treated horsemeat, after 48 h. The procedure: Lucilia cuprina Test (LUCICU)
Species: Lucilia cuprina 1st larval stage (age: 24 hours)
(§5) Solvent: dimethyl sulphoxide
(§6) To prepare an appropriate active ingredient formulation, 10 mg of active ingredient are mixed with 0.5 ml of dimethyl sulphoxide and the concentrate is diluted with water to the desired concentration.
Vessels containing 1 cm^3 of horsemeat which had been treated with the active ingredient formulation are populated with about 20 Lucilia cuprina 1st instar larvae.
After 48 h, the kill in % is determined 100% means that all larvae have been killed; 0% means that no larvae have been killed.

The next data set concerns adult Musca domestica. The data set is described as follows: Musca domestica test (MUSCDO). The format is in vivo. Conditions: 100 ppm, treated sponge, after 2 days. The procedure: Musca domestica Test (MUSCDO)
as §5, §6
Vessels containing a sponge treated with the active ingredient preparation of the desired concentration are populated with 10 adult Musca domestica.
After 2 days, the kill in % is determined 100% means that all flies have been killed; 0% means that no flies have been killed.

In the case of `CNC(=O)c1cc(C(N)=S)cc(C)c1NC(=O)c1cc(Cn2nnc(C(F)(F)F)n2)nn1-c1ncccc1Cl` [Compound 23], in data set [1], the chromatographic logP stood at 2.26. The pest or weed control at 100 g/ha in data set [2], in data set [3] and in data set [5] was 100% throughout. In data set [4], the larval mortality at 20 g/ha is 100%.
`COC(=O)c1cc(C)c(NC(=O)c2cc(Cn3nnc(C(F)(F)F)n3)nn2-c2ncccc2Cl)c(C(=O)NC(C)(C)C)c1` [Compound 4] showed a chromatographic logP in data set [1] of 3.52. The “kill in % (larvae killed)” value in data set [6] is on record as 100%. In addition, the pest or weed control at 100 g/ha in data set [3] and in data set [5] was 100% each time. Besides, in the data set with adult Musca domestica, the “kill in % (flies killed)” value is recorded as 100%.
In data set [1], `C/C(=N\O)c1cc(C)c(NC(=O)c2cc(Cn3nnc(C(F)(F)F)n3)nn2-c2ncccc2Cl)c(C(=O)NC(C)(C)C)c1` [Compound 7] registered a chromatographic logP of 3. The “kill in % (larvae killed)” value in data set [6] was found to be 100%. Also, the pest or weed control at 100 g/ha in data set [2] and in data set [5] was 100% each time.
Consider `CC(=O)c1cc(C)c(NC(=O)c2cc(Cn3nnc(C(F)(F)F)n3)nn2-c2ncccc2Cl)c(C(=O)NC(C)(C)C)c1` [Compound 1], for which the “LOGP (HCOOH)” value in data set [1] (pH 2.7) was 3.26. The “kill in % (larvae killed)” value in data set [6] is 100%. The pest or weed control at 100 g/ha in data set [2] and in data set [5] was 100% each time. In the data set with adult Musca domestica, the “kill in % (flies killed)” value came out at 100%.
`Cc1cc(C(N)=O)cc(C(N)=O)c1NC(=O)c1cc(Cn2nnc(C(F)(F)F)n2)nn1-c1ncccc1Cl` [Compound 21] registered a chromatographic logP in data set [1] of 1.83. The pest or weed control at 100 g/ha turned out to be 80% in data set [2], 100% in data set [3] and 100% in data set [5].
In turn, `CNC(=O)c1cc(C)cc(C)c1NC(=O)c1cc(Cn2nnc(C(F)(F)F)n2)nn1-c1ncccc1Cl` [Comparative Example, reference compound] showed a larval mortality at 20 g/ha in data set [4] of 0%.
For the compound `CNC(=O)c1cc(C(=O)OC)cc(C)c1NC(=O)c1cc(Cn2nnc(C(F)(F)F)n2)nn1-c1ncccc1Cl` [Compound 2], the chromatographic logP in data set [1] was 2.77. In addition, the “kill in % (larvae killed)” value in data set [6] is 100%. Besides, the pest or weed control at 100 g/ha was found to be 90% in data set [2], 100% in data set [3] and 100% in data set [5]. Further, in the data set on adult Musca domestica, the “kill in % (flies killed)” value was determined as 90%.
Take `CNC(=O)c1cc(C(N)=O)cc(C)c1NC(=O)c1cc(Cn2nnc(C(F)(F)F)n2)nn1-c1ncccc1Cl` [Compound 17]: in data set [1], the chromatographic logP was 1.94. The pest or weed control at 100 g/ha in data set [2], in data set [3] and in data set [5] was 100% each time.
`COC(=O)c1cc(C)c(NC(=O)c2cc(Cn3nnc(C(F)(F)F)n3)nn2-c2ncccc2Cl)c(C(N)=O)c1` [Compound 5]: the chromatographic logP in data set [1] is 2.56. In addition, the “kill in % (larvae killed)” value in data set [6] was determined as 100%. In addition, the pest or weed control at 100 g/ha was 90% in data set [2], 100% in data set [3] and 100% in data set [5].
`Cc1cc(C(N)=S)cc(C(=O)NC(C)(C)C)c1NC(=O)c1cc(Cn2nnc(C(F)(F)F)n2)nn1-c1ncccc1Cl` [Compound 22] gave a chromatographic logP in data set [1] of 2.89. Further, the pest or weed control at 100 g/ha in data set [2] was determined as 90%; in data set [3] it was 100%; in data set [5], 100%.
As to `CC(=O)c1cc(C)c(NC(=O)c2cc(Cn3nnc(C(F)(F)F)n3)nn2-c2ncccc2Cl)c(C(=O)NC(C)(C)C)c1` [Compound 6], the chromatographic logP in data set [1] was found to be 2.87. In addition, in data set [6], the “kill in % (larvae killed)” value is given as 100%. Moreover, the “efficacy in % (caterpillars killed)” value in data set [5] (100 g/ha, spray on maize leaf discs, after 7 days) turned out to be 100%. Further, the “kill in % (flies killed)” value in the data set with adult Musca domestica came out at 90%.
`COC(=O)c1cc(C)c(NC(=O)c2cc(Cn3nnc(C(F)(F)F)n3)nn2-c2ncccc2Cl)c(C(=O)NC(C)C)c1` [Compound 3] registered a chromatographic logP in data set [1] of 3.21. Besides, the “kill in % (larvae killed)” value in data set [6] amounted to 100%. Further, the pest or weed control at 100 g/ha in data set [3] and in data set [5] was 100% each time.
